{"source": "patent US10639376B2", "about": "“Pharmaceutical compositions having improved storage stability” (ALKERMES PHARMA IRELAND LIMITED, priority 2012, dated 2020)", "assay": "Solubility of Compound 1 in vehicles with various amounts of sorbitan monolaurate", "type": "physicochemical", "conditions": "from trend of Compound 1 concentration as a function of pH at a given SML concentration; read-out: estimated pKa", "description": "The solubility of Compound 1 was determined in vehicles containing 10 mM pH 7 phosphate buffer, 0.2% polysorbate 20 (PS), 0.8% saline, and various amounts of sorbitan monolaurate (SML). […] At a given SML concentration, the trend of Compound 1 concentration as a function of pH is consistent with an estimated pKa of ˜7. […] The degradation of dissolved Compound 1 was further followed in the drug vehicle containing 0.50% SML and 0.2% PS."}
{"smiles": "CCCCCCCCCCCC(=O)OCN1C(=O)CCc2ccc(OCCCCN3CCN(c4cccc(Cl)c4Cl)CC3)cc21", "note": "[Compound 1]", "values": [{"measurement": "pKa", "value": "~7"}]}
